Experimental data as given in ChEMBL document CHEMBL1141120, “Structure-based design and discovery of protein tyrosine phosphatase inhibitors incorporating novel isothiazolidinone heterocyclic phosphotyrosine mimetics” (J Med Chem, 2005).
pIC50, pKi: −log10 of the molar value.

Key:
[1] = molecular target: T1, Tyrosine-protein phosphatase non-receptor type 1 (Homo sapiens, UniProt P18031); test: Inhibitory concentration against protein-tyrosine phosphatase
T1 sequence (P18031 whole entry): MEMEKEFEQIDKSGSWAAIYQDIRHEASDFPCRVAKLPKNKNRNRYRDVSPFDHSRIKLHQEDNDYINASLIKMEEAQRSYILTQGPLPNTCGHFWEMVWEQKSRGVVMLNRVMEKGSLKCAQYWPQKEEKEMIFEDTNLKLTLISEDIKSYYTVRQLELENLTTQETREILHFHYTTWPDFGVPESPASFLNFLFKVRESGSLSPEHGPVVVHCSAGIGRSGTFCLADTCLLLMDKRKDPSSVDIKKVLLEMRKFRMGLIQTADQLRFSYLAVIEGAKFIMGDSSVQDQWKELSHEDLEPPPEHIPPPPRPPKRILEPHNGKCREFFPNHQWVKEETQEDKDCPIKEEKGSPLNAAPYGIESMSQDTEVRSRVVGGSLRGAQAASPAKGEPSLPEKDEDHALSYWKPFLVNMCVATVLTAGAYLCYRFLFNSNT

[2] = molecular target: T1, Tyrosine-protein phosphatase non-receptor type 1; test: Inhibition constant against protein-tyrosine phosphatase 1B by PNPP enzyme assay
[3] = molecular target: T2, Tyrosine-protein phosphatase non-receptor type 2 (Homo sapiens, UniProt P17706); test: Inhibitory concentration against T cell protein tyrosine phosphatase
T2 sequence (P17706 whole entry): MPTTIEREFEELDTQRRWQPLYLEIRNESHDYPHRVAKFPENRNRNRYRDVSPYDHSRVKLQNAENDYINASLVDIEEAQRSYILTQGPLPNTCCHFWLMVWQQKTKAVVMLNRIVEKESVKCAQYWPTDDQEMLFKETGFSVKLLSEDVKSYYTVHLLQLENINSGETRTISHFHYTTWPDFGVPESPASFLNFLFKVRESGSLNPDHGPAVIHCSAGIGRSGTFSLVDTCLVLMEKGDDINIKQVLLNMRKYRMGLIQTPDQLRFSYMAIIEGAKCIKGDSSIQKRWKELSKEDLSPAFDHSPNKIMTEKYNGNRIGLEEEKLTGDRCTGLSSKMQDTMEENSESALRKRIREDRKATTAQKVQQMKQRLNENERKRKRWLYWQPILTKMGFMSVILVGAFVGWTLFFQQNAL

- pIC50 [1]: < 4.00
- pKi [2]: 6.74
- pIC50 [3]: 6.87
SMILES: CC(=O)N[C@@H](Cc1ccccc1)C(=O)N[C@@H](Cc1ccc([C@@H]2CC(=O)NS2(=O)=O)cc1)C(N)=O
